Experimental data: US10849339B2, “Beverages containing rare sugars” (The Coca-Cola Company, priority 2013, dated 2020)

Key:
[1] = Sweetness evaluation against sucrose solutions in citric acid buffer, two panelists (Example 5); format: in vivo, human
Experimental: First, the sweetness level of 2,4-dihydroxybenzoic acid was evaluated against three solutions of 1%, 2%, and 3% sucrose. Second, the sweetness level of a solution containing D-psicose and 500 ppm 2,4-dihydroxybenzoic acid was evaluated against 5%, 6.5%, and 7% sucrose solutions. All solutions were made in citric acid/potassium citrate buffer.
(§1) Beverages were kept in the refrigerator overnight and tasted cold the following day. Two panelists evaluated the beverages. Bottles were removed from the refrigerator and about 20 ml of beverage poured in 2 oz-plastic cups. Mineral water was given for palate rinsing before tasting and between tasting different samples. Unsalted crackers were also given.

[2] = Sweetness evaluation against sucrose solutions in citric acid buffer (Example 7); format: in vivo, human
Experimental: 4-Amino-5-(cyclohexyloxy)-2-methylquinoline-3-carboxylic acid was evaluated at 30 ppm. First, the sweetness level of the compound was evaluated against three solutions of 1%, 1.5%, and 2% sucrose. Second, the sweetness level of a solution containing D-psicose and 30 ppm amino-5-(cyclohexyloxy)-2-methylquinoline-3-carboxylic acid was evaluated against 5%, 6%, and 7% sucrose solutions.
A solution containing a blend of sucrose and D-psicose with a total sweetness equivalent to 5.5% sucrose (3.5% sucrose and 2% SE D-psicose) was also made and evaluated for its sweetness with and without addition of 30 ppm 4-amino-5-(cyclohexyloxy)-2-methylquinoline-3-carboxylic acid. All solutions were made in citric acid/potassium citrate buffer.
as §1, with “given for thorough palate rinsing” for “given for palate rinsing”

[3] = sucrose part of the blend; from US20130041046A; cited from earlier work
[4] = Sucrose equivalence of D-psicose (background statement); format: in vivo, human; conditions: 2% (w/w) in a citric acid/potassium citrate matrix
Description: The sweetness of a non-sucrose sweetener can be measured against a sucrose reference by determining the non-sucrose sweetener's sucrose equivalence. Typically, taste panelists are trained to detect sweetness of reference sucrose solutions containing between 1-15% sucrose (w/v). Other non-sucrose sweeteners are then tasted at a series of dilutions to determine the concentration of the non-sucrose sweetener that is as sweet as a given percent sucrose reference. For example, if a 1% solution of a sweetener is as sweet as a 10% sucrose solution, then the sweetener is said to be 10 times as potent as sucrose, and has 10% sucrose equivalence.

[5] = Taste test with eight panelists, sweetness rated against 1%, 1.5% and 2% sucrose controls (Example 1); format: in vivo, human
Experimental: Taste tests were carried out with eight panelists. Bottles were removed from the refrigerator and about 50 ml of beverage was poured into 4 oz-plastic cups. Panelists were given mineral water to rinse their mouth before tasting and between tasting different samples. Unsalted crackers were also given to panelists to eat. Taste tests were done in two rounds: a first round in which a sample of D-psicose in citric acid/potassium citrate buffer and a sample of D-psicose and Reb-C in citric acid/potassium citrate buffer were evaluated, and a second round in which a sample of D-psicose in a lemon lime carbonated soft drink and a sample of D-psicose and Reb-C in a lemon lime carbonated soft drink were evaluated. In each round, panelists were asked to e choose the sweetest sample among the pair, then rate the sweetness level against control solutions of 1%, 1.5%, and 2% sucrose in citric acid/potassium citrate buffer.

[6] = Sweetness evaluation against sucrose solutions in citric acid buffer, three panelists (Example 6); format: in vivo, human; conditions: D-psicose (5% SE) in citric acid buffer
[7] = Sweetness evaluation against sucrose solutions in citric acid buffer, two panelists (Example 8); format: in vivo, human
Experimental: The sweetness level of D-tagatose and FEMA GRAS FLAVOR 4701 was evaluated against 5%, 6%, and 7% sucrose solutions. All solutions were made in citric acid/potassium citrate buffer Beverages were made and chilled at 4° C. before tasting. Two panelists evaluated the beverages. Bottles were removed from the refrigerator and about 20 ml of beverage poured in 2 oz-plastic cups. Mineral water was given to panelists for palate rinsing before tasting and between tasting different samples. Unsalted crackers were also given.

[8] = Sweetness recognition threshold concentration by taste testing; format: in vivo, human
Description: The term “sweetness recognition threshold concentration,” as generally used herein, is the lowest known concentration of a sweet compound that is perceivable by the human sense of taste, typically around 1.0% sucrose equivalence (1.0% SE). While the particular sweetness recognition threshold concentration between sweetness enhancers can vary, generally the concentration of sweetness enhancer is below 500 ppm, such as, for example, from about 5 ppm to about 300 ppm, from about 50 ppm to about 200 ppm or from about 100 ppm to about 200 ppm.
Generally, the sweetness enhancers may enhance or potentiate the sweet taste of sweeteners without providing any noticeable sweet taste by themselves when present at or below the sweetness recognition threshold concentration of a given sweetness enhancer; however, the sweetness enhancers may themselves provide sweet taste at concentrations above their sweetness recognition threshold concentration. The sweetness recognition threshold concentration is specific for a particular enhancer and can vary based on the beverage matrix. The sweetness recognition threshold concentration can be easily determined by taste testing increasing concentrations of a given enhancer until greater than 1.0% sucrose equivalence in a given beverage matrix is detected. […]

For O=C(O)c1ccc(O)cc1O [2,4-dihydroxybenzoic acid], the “sweetness against 1%, 2% and 3% sucrose solutions” value ([1]; 500 ppm alone in citric acid buffer) was under 1 % sucrose and the “increase of detected sucrose equivalence” value ([1]; added at or below its sweetness recognition threshold to a beverage containing D-psicose, embodiment statement) was “about 1.5%”.
In the case of Cc1nc2cccc(OC3CCCCC3)c2c(N)c1C(=O)O [4-amino-5-(cyclohexyloxy)-2-methylquinoline-3-carboxylic acid], the “sweetness with 30 ppm enhancer in combination with D-psicose individually” value ([2]; D-psicose part of the blend (2% SE)) is given as 3 % SE, the “increase of detected sucrose equivalence” value ([2]; added at or below its sweetness recognition threshold, b195 after b194 (D-psicose and sucrose), embodiment statement) is given as “about 5.0%” and the “sweetness with 30 ppm enhancer in combination with sucrose individually” value [3] is given as 7%.
With O=C(CO)[C@H](O)[C@H](O)[C@H](O)CO [D-psicose] the sucrose equivalence [4] was “about 1.26%”, the sweetness equivalence ([5]; 2% D-psicose in the absence of Rebaudioside C) was 1.2 % sucrose and the “detected sucrose equivalence before addition of Rebaudioside C” value ([5]; lemon-lime carbonated soft drink, citric acid buffer, D-psicose about 2% by weight, embodiment statement) was “about 1.2%”. The “sweetness against 5% and 6.5% sucrose solutions” value [6] was 5 % sucrose, the “sweetness against 5% and 6% sucrose solutions” value ([2]; D-psicose (5% SE) in citric acid buffer) was 5 % sucrose and the “sweetness against 5% and 6.5% sucrose solutions” value ([1]; D-psicose solution (5% SE), citric acid buffer) was 5 % sucrose.
In the case of O=C(CO)[C@@H](O)[C@@H](O)[C@H](O)CO [D-tagatose], the “sweetness against 5% and 6% sucrose solutions” value ([7]; D-tagatose (5% SE) in citric acid buffer) was 5 % sucrose.
With CCCNC(=O)C(C)(C)COc1cccc2c1C(N)=NS(=O)(=O)N2 [FEMA GRAS flavor 4701] the sucrose equivalence ([7]; 15 ppm alone in citric acid buffer) was “less than 1.0%”.
For Rebaudioside C, the sucrose equivalence ([5]; 220 ppm in citric acid/potassium citrate buffer, alone) was “less than 1.0%”, the “detected sucrose equivalence after addition of Rebaudioside C” value ([5]; about 220 ppm added to lemon-lime carbonated soft drink, citric acid buffer, D-psicose about 2% by weight, embodiment statement) was “about 2.0%” and the “sweetness recognition threshold concentration” value ([8]; in a citric acid/potassium citrate buffer) was 270 ppm. The “sweetness recognition threshold concentration” value ([8]; in cola) was “about 345 ppm”.
